Test results as given in US12324843B2, “Compositions and methods for delivery of biomacromolecule agents” (The Regents of the University of Michigan, priority 2015, dated 2025).
Residues, ends and D or L forms follow the SMILES beside them. *: point of attachment. FITC = O=C1OC2(c3ccc(O)cc3Oc3cc(O)ccc32)c2ccc(NC(=S)*)cc21

Test: Lymph node draining study (IVIS)
Format: in vivo, C57BL/6 mice
Conditions: 31 nmol s.c. at tail base, after 1 day
Method: sHDL-[…](FITC)L was prepared as described above. Female C57BL/6 mice of age 6-8 weeks were purchased from Harlan Laboratories. C57BL/6 mice were subcutaneously injected with free […](FITC)L or sHDL-[…](FITC)L. 24 hours after injection, mice were euthanized by carbon dioxide inhalation and axillary lymph nodes and inguinal lymph nodes were harvested and imaged with IVIS optical imaging system (Caliper Lifesciences).
For lymph node draining studies, C57BL/6 mice were injected with free CSSSIINFBK(FITC)L, sHDL-CSSSIINFBK(FITC)L, free Cho-CpG(Cy5), or sHDL-Cho-CpG(Cy5). After 24 h, inguinal lymph nodes were harvested, and FITC or Cy5 fluorescence signal was measured with IVIS optical imaging system (Caliper Life Sciences).

SMILES: CC[C@H](C)[C@H](NC(=O)[C@H](CO)NC(=O)[C@H](CO)NC(=O)[C@H](CO)NC(=O)[C@@H](N)CS)C(=O)N[C@H](C(=O)N[C@@H](CC(N)=O)C(=O)N[C@@H](Cc1ccccc1)C(=O)N[C@@H](CCC(=O)O)C(=O)N[C@@H](CCCCNC(=S)Nc1ccc2c(c1)C(=O)OC21c2ccc(O)cc2Oc2cc(O)ccc21)C(=O)N[C@@H](CC(C)C)C(=O)O)[C@@H](C)CC [free CSS-SIINFEK(FITC)L] (H-CSSSIINFEK(FITC)L-OH)
- FITC signal in inguinal dLNs: minimal FITC signal in inguinal dLNs
